{
  "source": "patent US20160289280A1",
  "about": "“Fusion protein of recombinant ganoderma immunoregulatory protein and human serum albumin, preparation method thereof, and application thereof” (priority 2013, published 2016)",
  "key": {"mouse spleen cells": {"tested_on": "mouse spleen cells", "assay": "promotion of mouse spleen cell proliferation, WST-1 method", "assay_type": "cell-based", "conditions": "for OD450, promotion of cell proliferation: 24 h, x ± s, n = 9; for promotion of spleen cell proliferation compared with rLZ-8: same protein concentration", "method": "Testing effects of the fusion proteins on mouse spleen cell proliferation by a WST-1 method, which illustrates strength of biological activity, wherein according to the present invention, BALB/c female mice are used, whose weight is controlled at 20-22 g; executing the mice by stretching necks thereof, taking out spleens under a sterile condition, and putting into a plate with 5 ml DMEM comprising 10% calf serum; cracking the spleens with tweezers, filtering tissue suspension with gauze for removing tissue blocks, and preparing cell suspension of spleen cells; adding 100 μl the tissue suspension into 900 μl 2% glacial acetic acid for counting with a microscope; adjusting a cell concentration to 5×10^6/ml with DMEM comprising 2% calf serum; respectively preparing the fusion proteins and the rLZ-8 with same molar concentration gradient, wherein there are 3 gradient concentrations, each concentration occupies 9 wells with 100 μl per well; adding tissue suspension with a concentration of 5×10^6/ml with 100 μl per well; shaking for evenly mixing, and then putting into a 37° C., 5% CO2 incubation device to incubate for 24 h; after incubation, adding WST-1 with 20 μl per well; putting into the 37° C., 5% CO2 incubation device to incubate for 3 h, then testing OD450 (with a BIO-RAD); wherein results are listed in table 1."}, "[1]": {"tested_on": "mouse transplanted tumor S180", "assay": "subcutaneous inhibition of mouse transplanted tumor S180", "assay_type": "in vivo", "conditions": "positive control 20 mg·kg^−1, abdominally injected", "method": "In vivo experiment: experimental material: mice weighing 18-22 g from Laboratory Animal Center of Jilin University; Ehrlich ascites tumor cell strains are provided by a lab of the inventor; cytoxan (CTX) is from Jiangsu Hengrui Medicine Co., Ltd, whose batch number is 06101921; 5180 ascites tumor and soild tumor experimental groups respectively comprises a normal control group, a negative control group, a positive control group, an rLZ-8 low-dosage group (0.25 mg·kg^−1), an rLZ-8 middle-dosage group (0.5 mg·kg^−1), an rLZ-8 high-dosage group (1 mg·kg^−1), an rLZ-8-HSA low-dosage group (0.25 mg·kg^−1), an rLZ-8-HSA middle-dosage group (0.5 mg·kg^−1), and an rLZ-8-HSA high-dosage group (1 mg·kg^−1), wherein dosages of the rLZ-8-HSA groups are judged from LZ-8 dosage, wherein each group comprises 10 mice.\ntumor inhibition rate (%)=(average tumor weight of control groups−average tumor weight of experimental groups)/average tumor weight of control groups×100%."}, "platelets": {"tested_on": "platelets", "assay": "treatment of mouse thrombocytopenia caused by cyclophosphamide, platelet count", "assay_type": "in vivo", "method": "Experimental medicine: preparing a 19.25 μg·kg^−1 and a 9.625 μg·kg^−1 dosage groups of the recombinant ganoderma immunoregulatory protein (rLZ-8) with sterile injection water, and 0.2 ml per mouse; and preparing a 19.25 μg·kg^−1 and a 9.625 μg·kg^−1 dosage groups (judging from the LZ-8) of the fusion protein rLZ-8-HSA of the recombinant ganoderma immunoregulatory protein.\nPositive control medicine: thrombopoietin (THPO) from Shenyang 3SBio Inc., with a dosage of 770 μg·kg^−1/d and 0.2 ml per mouse.\nChemotherapy medicine: cyclophosphamide (Cy) from Jiangsu Hengrui Medicine Co., Ltd, whose batch number is 12112121, 200 mg/bottle; preparing into 100 mg·kg^−1, 0.2 ml per mouse with sterile injection water.\nPlatelet dilution: urea: 1.3 g; sodium citrate: 0.5 g; formaldehyde: 0.1 ml; adding distilled water to 100 ml for mixing, then filtering for further utilization.\nExperimental method: dividing experimental animals into 5 groups, wherein each group comprises 10 mice with 5 males and 5 females; except for a normal control group (injected with normal saline having an equal volume), abdominally injecting the cyclophosphamide to the mice with a dosage of 100 mg·kg^−1, 0.2 ml per mouse per day, and lasting for three days; when a platelet quantity decreased to below 300×10^9/L, subcutaneously injecting the rLZ-8, the fusion protein rLZ-8-HAS (19.25 μg·kg^−1, 9.625 μg·kg^−1, 0.2 ml·per mouse per day) and the positive medicine (THPO 770 μg·kg^−1, 0.2 ml·per mouse per day) according to the above groups with corresponding dosages, and injecting the normal saline having the equal volume to the normal control group and a CP group; respectively sampling mouse tail vein blood 3 d, 7 d and 14 d after treatment, counting platelets with high power lens, wherein results thereof are listed in table 7."}, "[2]": {"tested_on": "mouse melanoma cells B16-F10", "assay": "mouse B16-F10 transplanted tumor model, in situ tumor weight", "assay_type": "in vivo", "conditions": "2.5 mg/kg, 5 days, again after 3 weeks, 28 day cycle", "method": "In vivo experiment: firstly, establishing a mouse tumor mould, wherein mouse melanoma cells B16-F10 is cultured with the DMEM comprising 10% fetal calf serum at 37° C. in a CO2 incubation device; slowly subcutaneously injecting 200 μl B16-F10 cell suspension (comprising 1×10^7 cells) with a 1 ml injector at mouse dorsal-ventral skin, so as to establish a mouse transplanted tumor mould."}, "leukocytes": {"tested_on": "leukocytes", "assay": "treatment of rat models with leucopenia caused by cyclophosphamide, leukocyte count", "assay_type": "in vivo", "conditions": "positive medicine 13.5 μg/ml, 0.1 ml per rat", "text": "Utilizing Wistar rats in the experiments, wherein 18 rats weighing about 100 g are utilized. […] The experiment has an rLZ-8 low-dosage group, an rLZ-8 middle-dosage group, an rLZ-8 high-dosage group, an rLZ-8-HSA low-dosage group, an rLZ-8-HSA middle-dosage group, an rLZ-8-HSA high-dosage group, and a positive medicine control group (utilizing the […]®). […] On the third day, the blood is sampled from the tail vein, and the leukocytes are counted by a cytoanalyzer. After successful modeling, the rats of each the group are respectively treated with the rLZ-8, the three kinds of the fusion proteins, or the positive medicine (the […]®) with the corresponding dosage, and the equal sterile saline is given to the rats of the normal control and a CP group. The blood is sampled from the tail vein on the first, third and seventh treatment days, and the leukocytes are counted by the cytoanalyzer. Medicine efficacy is analyzed according to a number difference of the leukocyte between before and after the treatment."}, "[3]": {"conditions": "770 μg·kg^−1 subcutaneously per day"}},
  "note": "Marks after values point to notes of the source that are not given here.",
  "data": [
    {"molecule": "rLZ-8-Fc4: fusion protein of ganoderma immunoregulatory protein (LZ-8) and human IgG4Fc fragment, SEQ ID NO. 3", "values": [
      {"measurement": "OD450, promotion of cell proliferation", "setting": "mouse spleen cells; protein 5.0 × 10^−9 mol/L", "value": "0.452 ± 0.43"},
      {"measurement": "OD450, promotion of cell proliferation", "setting": "mouse spleen cells; protein 10.0 × 10^−9 mol/L", "value": "0.840 ± 0.27"},
      {"measurement": "OD450, promotion of cell proliferation", "setting": "mouse spleen cells; protein 15.0 × 10^−9 mol/L", "value": "0.929 ± 0.21"},
      {"measurement": "promotion of spleen cell proliferation compared with rLZ-8", "setting": "mouse spleen cells", "value": "significantly decreased"}
    ]},
    {"molecule": "O=P1(N(CCCl)CCCl)NCCCO1", "note": "(stereo not drawn) [CTX, cyclophosphamide, reference compound]", "values": [
      {"measurement": "Inhibition rate", "setting": "[1]", "value": 64.3, "unit": "%"},
      {"measurement": "tumor weight", "setting": "[1]", "value": "0.36 ± 0.02", "unit": "g"}
    ]},
    {"molecule": "THPO: thrombopoietin (THPO) from Shenyang 3SBio Inc., positive control medicine [reference compound]", "values": [
      {"measurement": "platelets after", "setting": "platelets; 770 μg·kg^−1 group, after cyclophosphamide, before treatment", "value": "284 ± 0.19 *10^9/L"},
      {"measurement": "platelets before", "setting": "platelets; 770 μg·kg^−1 group, baseline before cyclophosphamide", "value": "851 ± 0.34 *10^9/L"},
      {"measurement": "platelets 3rd day", "setting": "platelets; [3]", "value": "390 ± 0.38 *10^9/L"},
      {"measurement": "platelets 7th day", "setting": "platelets; [3]", "value": "420 ± 0.32 *10^9/L"},
      {"measurement": "platelets 14th day", "setting": "platelets; [3]", "value": "689 ± 0.65 *10^9/L"}
    ]},
    {"molecule": "CN(C)/N=N/c1[nH]cnc1C(N)=O", "note": "[dacarbazine, reference compound]", "values": [
      {"measurement": "tumor inhibition rate", "setting": "[2]", "value": "62.57 ± 0.27", "unit": "%"},
      {"measurement": "tumor weight", "setting": "[2]", "value": "0.52 ± 0.12", "unit": "g"}
    ]},
    {"molecule": "rLZ-8-Fc1: fusion protein of ganoderma immunoregulatory protein (LZ-8) and human IgG1Fc fragment, SEQ ID NO. 2 (protein, rLZ-8-Fc1 sequence) RPSDTALIFRLAWDVKKLSFDYTPNWGRGNPNNFIDTVTFPKVLTDKAYTYRVAVSGRNLGVKPSYAVESDGSGKVNFLEYNSGYGIADTNTIGVFVVDPDTNNDFIIAGWNGGGGSSEPKSCDKTHTCPPCPAPELLGGPSVFLFPPKPKDTLMISRTPEVTCVVVDVSHEDPEVKFNWYVDGVEVHNAKTKPREEGYNSTYRVVSVLTVLHGDWLNGKEYKCKVSNKALPAPIEKTISKAKGGPREPGVYTLPPSREEMTKNGVSLTCLVKGFYPSDIAVEWESNGGPENNYKTTPPVLDSDGSFFLYSKLTVDKSRWGGGNVFSCSVMHEALHNHYTGKSLSLSPGK", "values": [
      {"measurement": "OD450, promotion of cell proliferation", "setting": "mouse spleen cells; protein 5.0 × 10^−9 mol/L", "value": "0.543 ± 0.26"},
      {"measurement": "OD450, promotion of cell proliferation", "setting": "mouse spleen cells; protein 10.0 × 10^−9 mol/L", "value": "0.937 ± 0.29"},
      {"measurement": "OD450, promotion of cell proliferation", "setting": "mouse spleen cells; protein 15.0 × 10^−9 mol/L", "value": "1.114 ± 0.31"},
      {"measurement": "promotion of spleen cell proliferation compared with rLZ-8", "setting": "mouse spleen cells", "value": "significantly decreased"}
    ]},
    {"molecule": "GenLei ® Scimax ®: recombinant human granulocyte colony-stimulating factor injection (rhG-CSF), positive medicine (protein, UniProt P09919 31-207, looked up) Granulocyte …: TPLGPASSLPQSFLLKCLEQVRKIQGDGAALQEKLVSECATYKLCHPEELVLLGHSLGIPWAPLSSCPSQALQLAGCLSQLHSGLFLYQGLLQALEGISPELGPTLDTLQLDVADFATTIWQQMEELGMAPALQPTQGAMPAFASAFQRRAGGVLVASHLQSFLEVSYRVLRHLAQP", "values": [
      {"measurement": "leukocyte number on the first treatment day", "setting": "leukocytes", "value": "6.4e+09", "unit": "L⁻¹"},
      {"measurement": "leukocyte number on the seventh treatment day", "setting": "leukocytes", "value": "1.117e+10", "unit": "L⁻¹"},
      {"measurement": "leukocyte number on the third treatment day", "setting": "leukocytes", "value": "1.183e+10", "unit": "L⁻¹"},
      {"measurement": "leukocyte number before", "setting": "leukocytes; baseline after CP modeling, before treatment", "value": "4.55e+09", "unit": "L⁻¹"}
    ]}
  ]
}
